Reference: patent publication US20090239841A1, “Diaryl Ureas as CB1 Antagonists” (priority 2004, published 2009)
pIC50: −log10 of the molar value.

Molecular target: T1, hCB1 (Homo sapiens, UniProt P21554)
T1 construct: made in house; host or cells: Sf9 insect cells (baculovirus), P2 membranes
Assay: Agonist-induced GTP binding (GTPγ35S) assay at CB1, Example 8
Assay type: biochemical
Conditions: IC50 at CB1, determined as described in Example 8; read-out: IC50
Method in brief: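 Antagonism read as inhibition of 1 nM CP55,940-stimulated GTPγ35S ([…]) binding, compounds at 10^−10 to 10^−5 M. Baculovirus-infected Sf9 membranes bearing hCB1 plus G-protein subunits, 60 min room-temperature incubation with 5 μM GDP. Filtration and scintillation counting; data as percent over basal.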

T1 sequence (P21554 whole entry): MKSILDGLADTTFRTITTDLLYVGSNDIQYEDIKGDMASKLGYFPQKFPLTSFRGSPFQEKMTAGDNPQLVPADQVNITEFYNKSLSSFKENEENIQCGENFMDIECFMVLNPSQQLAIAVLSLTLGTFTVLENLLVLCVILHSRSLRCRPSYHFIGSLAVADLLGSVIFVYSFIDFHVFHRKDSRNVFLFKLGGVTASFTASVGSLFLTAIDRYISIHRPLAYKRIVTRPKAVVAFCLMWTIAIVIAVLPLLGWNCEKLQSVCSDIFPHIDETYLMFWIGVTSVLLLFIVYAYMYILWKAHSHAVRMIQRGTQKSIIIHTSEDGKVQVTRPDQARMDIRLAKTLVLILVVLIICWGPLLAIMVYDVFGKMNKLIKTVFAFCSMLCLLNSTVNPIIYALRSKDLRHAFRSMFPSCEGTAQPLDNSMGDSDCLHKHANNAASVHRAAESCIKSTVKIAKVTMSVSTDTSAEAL

pIC50	SMILES
> 5.70	COC(=O)c1cccc(NC(=O)Nc2ccc(C)c(F)c2)c1 [Compound 765, methyl 3-({[(3-fluoro-4-methylphenyl)amino]carbonyl}amino)benzoate]
> 5.70	CCOC(=O)c1cccc(NC(=O)Nc2ccc(C)c(F)c2)c1 [Compound 766, ethyl 3-({[(3-fluoro-4-methylphenyl)amino]carbonyl}amino)benzoate]
> 5.70	CCOC(=O)c1cccc(NC(=O)Nc2ccc(F)c(C)c2)c1 [Compound 767, ethyl 3-({[(4-fluoro-3-methylphenyl)amino]carbonyl}amino)benzoate]
> 5.70	CCOC(=O)c1cccc(NC(=O)Nc2ccc(F)c(F)c2)c1 [Compound 768, ethyl 3-({[(3,4-difluorophenyl)amino]carbonyl}amino)benzoate]
> 5.70	COC(=O)c1cccc(NC(=O)Nc2ccc(C)c(Cl)c2)c1 [Compound 769, methyl 3-({[(3-chloro-4-methylphenyl)amino]carbonyl}amino)benzoate]
> 5.70	CCOC(=O)c1cccc(NC(=O)Nc2ccc(C)c(Cl)c2)c1 [Compound 770, ethyl 3-({[(3-chloro-4-methylphenyl)amino]carbonyl}amino)benzoate]
> 5.70	CCOC(=O)c1cccc(NC(=O)Nc2ccc(Cl)c(C)c2)c1 [Compound 771, ethyl 3-({[(4-chloro-3-methylphenyl)amino]carbonyl}amino)benzoate]
> 5.70	Cc1ccc(NC(=O)Nc2ccc(C)c(F)c2)cc1F [Compound 772, 1,3-bis(3-fluoro-4-methylphenyl)urea]
> 5.70	Cc1ccc(NC(=O)Nc2ccc(F)c(F)c2)cc1F [Compound 774, 1-(3,4-difluorophenyl)-3-(3-fluoro-4-methylphenyl)urea]
> 5.70	O=C(Nc1ccc(F)c(F)c1)Nc1ccc2c(c1)CCC2 [Compound 775, 1-(3,4-difluorophenyl)-3-(2,3-dihydro-1H-inden-5-yl)urea]
> 5.70	Cc1ccc(NC(=O)Nc2ccc(C)c(Cl)c2)cc1F [Compound 776, 1-(3-chloro-4-methylphenyl)-3-(3-fluoro-4-methylphenyl)urea]
> 5.70	Cc1ccc(NC(=O)Nc2ccc(F)c(F)c2)cc1Cl [Compound 777, 1-(3-chloro-4-methylphenyl)-3-(3,4-difluorophenyl)urea]
> 5.70	CCOC(=O)c1ccc(NC(=O)Nc2ccc(F)cc2C(F)(F)F)cc1 [Compound 778, ethyl 4-[({[4-fluoro-2-(trifluoromethyl)phenyl]amino}carbonyl)amino]benzoate]
> 5.70	CCOC(=O)c1ccc(NC(=O)Nc2ccc(Cl)nc2)cc1 [Compound 779, ethyl 4-({[(6-chloropyridin-3-yl)amino]carbonyl}amino)benzoate]
> 5.70	Cc1ccc(NC(=O)Nc2ccc(Cl)nc2)cc1C [Compound 780, 1-(6-chloropyridin-3-yl)-3-(3,4-dimethylphenyl)urea]
> 5.70	Cc1ccc(NC(=O)Nc2ccc(Cl)nc2)cc1F [Compound 781, 1-(6-chloropyridin-3-yl)-3-(3-fluoro-4-methylphenyl)urea]
> 5.70	CCOC(=O)c1cccc(NC(=O)Nc2cccc(OC(F)F)c2)c1 [Compound 782, ethyl 3-[({[3-(difluoromethoxy)phenyl]amino}carbonyl)amino] benzoate]
> 5.70	N#CCOc1ccc(NC(=O)Nc2cccc(OC(F)F)c2)cc1 [Compound 783, N-[4-(cyanomethoxy)phenyl]-N′-[3-(difluoromethoxy)phenyl]urea]
> 5.70	O=C(Nc1ccc(Cn2cncn2)cc1)Nc1cccc(OC(F)F)c1 [Compound 784, N-[3-(difluoromethoxy)phenyl]-N′-[4-(1H-1,2,4-triazol-1-ylmethyl)phenyl]urea]
> 5.70	CN(CCc1cccc(NC(=O)Nc2cccc(OC(F)F)c2)c1)S(C)(=O)=O [Compound 785, N-(2-{3-[({[3-(difluoromethoxy)phenyl]amino}carbonyl)amino]phenyl}ethyl)-N-methylmethane-sulfonamide]
> 5.70	O=C(Nc1ccc(Cn2ccnc2)cc1)Nc1ccc(OC(F)F)cc1 [Compound 786, N-[4-(difluoromethoxy)phenyl]-N′-[4-(1H-irnidazol-1-ylmethyl)phenyl]urea]
> 5.70	O=C(Nc1ccc(Cn2cncn2)cc1)Nc1ccc(OC(F)F)cc1 [Compound 787, N-[4-(difluoromethoxy)phenyl]-N′-[4-(1H-1,2,4-triazol-1-ylmethyl)phenyl]urea]
> 5.70	CN1CCN(S(=O)(=O)c2cccc(NC(=O)Nc3cccc(OC(F)F)c3)c2)CC1 [Compound 788, N-[3-(difluoromethoxy)phenyl]-N′-{3-[(4-methyl-1-piperazinyl)sulfonyl]phenyl}urea]
> 5.70	O=C(Nc1ccc(S(=O)(=O)N2CCNCC2)cc1)Nc1cccc(OC(F)F)c1 [Compound 789, N-[3-(difluoromethoxy)phenyl]-N′-[4-(1-piperazinylsulfonyl)phenyl]urea]
> 5.70	CN1CCN(S(=O)(=O)c2ccc(NC(=O)Nc3cccc(OC(F)F)c3)cc2)CC1 [Compound 790, N-[3-(difluoromethoxy)phenyl]-N′-{4-[(4-methyl-1-piperazinyl)sulfonyl]phenyl}urea]
> 5.70	CCn1nnnc1-c1ccc(NC(=O)Nc2cccc(OC(F)F)c2)cc1 [Compound 791, N-[3-(difluoromethoxy)phenyl]-N′-[4-(1-ethyl-1H-tetrazol-5-yl)phenyl]urea]
> 5.70	CCn1nnc(-c2ccc(NC(=O)Nc3cccc(OC(F)F)c3)cc2)n1 [Compound 792, N-[3-(difluoromethoxy)phenyl]-N′-[4-(2-ethyl-2H-tetrazol-5-yl)phenyl]urea]
> 5.70	NC(=O)CN1CCN(S(=O)(=O)c2ccc(NC(=O)Nc3cccc(OC(F)F)c3)cc2)CC1 [Compound 793, 2-[4-({4-[({[3-(difluoromethoxy)phenyl]amino}carbonyl)amino]phenyl}sulfonyl)-1-piperazinyl] acetamide]
> 5.70	Cn1nnnc1-c1cccc(NC(=O)Nc2ccc(Cn3ccnn3)cc2)c1 [Compound 794, N-[3-(1-methyl-1H-tetrazol-5-yl)phenyl]-N′-[4-(1H-1,2,3-triazol-1-ylmethyl)phenyl]urea]
